Columns and labels:
HeLaLuc705 cells = assay: SSO-mediated luciferase induction assay; format: cell-based
Description: FIG. 1B-1E. Effects with SSOs. FIG. 1B Structure of UNC2383. […] The cells were then rinsed and incubation continued for an additional 4 h in DMEM+10% FBS. Cells were rinsed twice in PBS and luciferase activity (RLU) and cell protein determined. The larger round symbol indicates the MM oligonucleotide. Means+/−SE. N=3. […] The cells were further incubated and then luciferase and protein determined. The total time of incubation in each case was 6 h. […] Means+/−SE. N=3.
FIG. 3. Effect and Cytotoxicity of Analogs. The effect of selected UNC2383 analogs on luciferase induction by SSO623 was measured as described in Methods and in the legend of FIG. 1B-1E. Cytotoxicity was measured using the Alamar Blue method as in FIG. 1E. MM10 is the effect of 10 uM compound in the presence of a mismatched oligonucleotide. Means and SE. N=3.
HeLaLuc705 cells are stably transfected with a firefly luciferase reporter whose coding sequence is interrupted by an abnormal intron. […] NIH-3T3-MDR cells are stably transfected with a human MDR1 cDNA coding for the P-glycoprotein (Pgp). We have described the maintenance and use of these cell lines elsewhere. (18, 20)
SSO-mediated luciferase induction assays were conducted as previously described. (18) In short, HeLaLuc705 cells in 24 well culture plates were preincubated with SSO623 followed by brief treatment with the small molecule; at intervals thereafter, luciferase activity and protein content were determined. […] (30)

[1] = tested on: CFTR channel activity in human bronchial epithelial cells (HBEC) from a 3849+10 kbC-T homozygous patient; assay: Ussing chamber analysis of CFTR function in 3849+10 kbC-T HBEC; format: cell-based
Description: FIG. 11. CFTR activity restored to CF splicing mutation 3849+10 kbC-T using SSOs. SSOs were delivered in vitro by electroporation (˜100% efficiency), CF primary cells were differentiated on permeable supports and tested. Panel A. PCR analysis. The lower band is the correctly spliced CFTR. Panel B. Functional correction by Ussing chamber analysis.
FIG. 12. OEC Mediated Delivery of a SSO in 3849+10 kbC-T HBEC. Well-differentiated human bronchial epithelial cells (HBEC) derived from a 3849+10 kbC-T homozygous patient were incubated with corrective (LNA) SSO A from FIG. 1 (1 uM, overnight). Cells were then incubated with OEC UNC2383 in the luminal or serosal bath (4 uM, 2 hs). Both the SSO and OEC were added in cell growing medium. Seventy two hour later, HBEC were analyzed in Ussing chamber for CFTR function. Orkambi® was tested in parallel inserts.
Results: In vitro studies were performed in well-differentiated HBEC cells derived from a homozygous 3849+10 kbC→T CF patient (CF HBEC) treated with one dose of a specific SSO (1 uM, 12 hs) followed by one dose of OEC (apical or basolateral delivery, 2-4 uM, 2-3 hs). A significant increase of forskolin-stimulated CFTR activity in Ussing chamber analyses was observed 24-96 hs after SSO+OEC treatment compared to SSO alone treatment or vehicle. OEC was efficacious delivered apically as well as basolaterally. Transepithelial resistance and microscopy tests were implemented to monitor cytotoxicity, which was negligible for both SSO and OEC (FIG. 12). In vivo studies were performed in a transgenic mouse model that has a SSO-inducible EGFP reporter.
SSOs (100 nM) were introduced in airway epithelial cells derived from a 3849+10 kbC-T homozygous CF patient in suspension by electroporation using the Neon system, program A4. Cells were differentiated for 2 weeks in culture on human collagen-coated permeable supports (Millipore) before being tested in Ussing chambers following methods described in Kreda et al. […] “Characterization of Wild-Type and ΔF508 Cystic Fibrosis Transmembrane Regulator in Human Respiratory Epithelia” Mol. Biol. Cell 16(5):2154-2167 (100 uM Amiloride, Amil; 10 uM Forskolin, Fsk; 20 uM CFTR inhibitor 172). After Ussing chamber analysis, cells were lysed and assayed for RT-PCR as described in Wang et al 2017 (FIG. 11).
(SEQ ID NO:2), C (5′+G*mA*mG*mU*+C*mU*mU**mU*mA*+C*mU*mC*mA*mC*mC*+A*mU*mU*mU) (SEQ ID NO:3) (Locked Nucleic Acid (LNA)=+, PS=*, 2′OMe=m). In SSO sequences A, B, and C the underlined bases indicate oligo bases that match up to the bases in the mutated splice site in the 3849+10 kb C-T CFTR splicing mutation. MM623 or SSO623 sequences are described herein. […]

[2] = cells preloaded with 100 nM SSO623, FIG. 1D

Q: How did the “effectiveness in cells compared to Retro-1” value (HeLaLuc705 cells) turn out when O=C(Nc1nc2ccccc2n1CCN1CCCC1)c1cc2cc(Cl)ccc2o1 [UNC2383] was run?
A: Its value is “far more effective”.

Q: What about the “effectiveness in cells compared to UNC10217938” value (HeLaLuc705 cells) of the same compound?
A: The value was “approximately equivalent”.

Q: What about the “enhancement of SSO actions” value (HeLaLuc705 cells; 2 μM) of the same compound?
A: The value was “quite strongly enhanced”.

Q: And the “SSO-mediated luciferase induction, comparison with chloroquine” value (HeLaLuc705 cells; FIG. 9C, 2 h, chloroquine also 16 h)?
A: Its value is “very active”.

Q: What about the “onset of action: effects first observed” value (HeLaLuc705 cells; [2]) of the same compound?
A: Its value is no more than 30 min.

Q: And the “onset of action: reaching a plateau” value (HeLaLuc705 cells; [2])?
A: The value was no more than 120 min.

Q: And the EC50 (HeLaLuc705 cells; luciferase induction by SSO623)?
A: The EC50 was 2000 nM.

Q: What about the “luciferase induction after mismatched oligonucleotide” value (HeLaLuc705 cells; mismatched oligonucleotide followed by compound) of the same compound?
A: Its value is “no effect”.

Q: And the “CFTR channel activity / functional correction” value ([1]; SSO A 1 uM overnight, OEC 4 uM 2 hs luminal or serosal, 72 h, approved drugs in parallel)?
A: The value was “significant enhancement”.

Q: What about the “oligonucleotide enhancing activity in human airway epithelial cells” value ([1]; in vitro) of the same compound?
A: Its value is “negligible activity”.

From patent US11040056B2, “Benzimidazoles that enhance the activity of oligonucleotides” (The University of North Carolina at Chapel Hill, priority 2018, dated 2021)
